Patent publication US20240082273A1, “NEUROKININ INHIBITORS SUCH AS APREPITANT FOR TREATING NON SMALL CELL LUNG CARCINOMA OR BREAST CANCER WITHOUT MUTATIONS” (priority 2020, published 2024)

What was measured:
[1] = Xenograft mouse safety model (body weight, autopsy); assay type: in vivo, C57BL/6J mice
Method: Fosaprepitant dimeglumine salt (CAS No 265121-04-8) was purchased from Selleck Chemicals and administered intraperitoneally at 30, 60 and 100 mg/kg dose, once a day. Fosaprepitant is a pro-drug available for parenteral administration that in the body, once administered, becomes aprepitant.
3LL cells (0.6×10^6 per mouse) or B16F10 cells (1×10^6 per mouse) were subcutaneously injected into the right flank of C57BL/6J mice (Charles River) with matrigel (Matrigel Membrane Matrix, Corning) at 50% v/v. Tumour growth was evaluated every 2/3 days. Animal vital parameters were monitored daily. When the tumours reached an average volume of 100-150 mm ^3, mice were randomized into cohorts of 6 animals each and treatments were administered for 7-9 days. Groups and regimens for each experiment are described in Table 1. Animals of the control group were dosed with equal volume of vehicle. Animals were euthanized according to institutional guidelines and tumour samples were excised. Tumours were snap-frozen in OCT medium (Sakura Tissue Tek) or fixed in PFA and embedded in paraffin. Several internal organs were also excised and fixed in PFA for future studies.

H441 = experiment: MTT proliferation, H441; assay type: cell-based, human; settings: 48 hours
Excerpt: EGFR, ALK and ROS1 are key molecular factors that may be used to determine pathological classification, prognosis, therapeutics and behaviour in patients with lung cancer. EGFR, ALK and ROS1 are biomarkers routinely analysed in the clinical practice of the management of patients with NSCLC. NSCLC with molecular profile EGFR-/ALK-/ROS1- presents a better response to treatment with the NK1 inhibitor aprepitant, compared to lung cancer with different profiles (in particular, EGFR+/ALK-/ROS1- and EGFR-/ALK+/ROS1-, in which EGFR and ALK respectively contain mutations relative to their wild type gene). Commercial lines of lung cancer were used as shown in Table 2 together with their molecular profile. The molecular profile of the cancer cell lines was determined by sequencing and can be consulted in the Cancer Cell Line Encyclopaedia database of public access available at the url: https://portals.broadinstitute.org/ccle All cells were cultured in wells under vendor-recommended conditions and exposed to different concentrations of aprepitant for 48 hours. In each case a group of wells of cells were used to which no treatment was applied and which were considered as controls. At 48 hours the number of cells was measured. Eight cell lines of human were used for the study of NK1 inhibitors (Table 3). All of them were maintained in culture in their respective culture media (Gibco,Thermo Fisher Scientific) supplemented with 10% foetal bovine serum (FBS) (Gibco, Thermo Fisher Scientific), 2 mM L-Glutamine (Gln) (Sigma-Aldrich, Merk), and […] and […] Gibco, Thermo Fisher Scientific) in a humidified incubator at 37° C. and 5% CO2. Cell culture media used are Dulbecco's Modified Eagle Medium (DMEM), and RPMI Medium 1640 (RPMI-1640). To measure cell viability, the cytotoxicity of drugs in culture was evaluated using the 3-(4,5-Dimethyl-2-thiazolyl)-2,5-diphenyl-2H-tetrazolium bromide (MTT) reduction assay. This assay assesses cell viability through the indirect measurement of the activity of reductases that convert yellow soluble MTT into purple insoluble formazan salts. As MTT can only be reduced when these enzymes are active, the reaction is used as an indicator of the cell metabolic competence and, therefore, of viability. A variable number of cells (depending on the cell line) were seeded in 96 multi-well plates and grown during 24 hours. The following day, the culture medium was aspirated and fresh culture medium with the drug dissolved was added to the wells. After 24 hours or 48 hours cell viability was measurement by adding 10 μl of a 5 mg/ml MTT solution (M5655; Sigma-Aldrich) and 100 μl of HCl 0.01M-SDS 10% solution 4 hours later. After 24 hours, the absorbance was measured at 595 nm, using a multi-well plate reader (iMark, Bio-rad). Each condition was tested 5 times, obtaining 5 values of absorbance. All sample measurements were corrected using the blank (culture medium without cells) mean absorbance value, and normalized to positive control to determinate relative cell viability for each condition at 24 and 48 hours.

[2] = tested on: breast cancer cell line ER+/PR+/HER2+ (BT474); experiment: MTT proliferation, breast cancer cell line ER+/PR+/HER2+; assay type: cell-based, human; settings: 48 hours
Method: (§1) All cells were cultured in wells under vendor-recommended conditions and exposed to different concentrations of aprepitant for 48 hours. In each case a group of wells of cells were used to which no treatment was applied and which were considered as controls. At 48 hours the number of cells was measured. To measure cell viability, the cytotoxicity of drugs in culture was evaluated using the 3-(4,5-Dimethyl-2-thiazolyl)-2,5-diphenyl-2H-tetrazolium bromide (MTT) reduction assay. This assay assesses cell viability through the indirect measurement of the activity of reductases that convert yellow soluble MTT into purple insoluble formazan salts. As MTT can only be reduced when these enzymes are active, the reaction is used as an indicator of the cell metabolic competence and, therefore, of viability. A variable number of cells (depending on the cell line) were seeded in 96 multi-well plates and grown during 24 hours. The following day, the culture medium was aspirated and fresh culture medium with the drug dissolved was added to the wells. After 24 hours or 48 hours cell viability was measurement by adding 10 μl of a 5 mg/ml MTT solution (M5655; Sigma-Aldrich) and 100 μl of HCl 0.01M-SDS 10% solution 4 hours later. After 24 hours, the absorbance was measured at 595 nm, using a multi-well plate reader (iMark, Bio-rad). Each condition was tested 5 times, obtaining 5 values of absorbance. All sample measurements were corrected using the blank (culture medium without cells) mean absorbance value, and normalized to positive control to determinate relative cell viability for each condition at 24 and 48 hours.

[3] = tested on: breast cancer cell line ER−/PR−/HER2+ (SkBr3); experiment: MTT proliferation, breast cancer cell line ER−/PR−/HER2+; assay type: cell-based, human; settings: 48 hours
Method: as §1

With `C[C@@H](O[C@H]1OCCN(Cc2nc(=O)[nH][nH]2)[C@H]1c1ccc(F)cc1)c1cc(C(F)(F)F)cc(C(F)(F)F)c1` [Aprepitant] the “autopsy, organs explored microscopically: signs of toxicity” value ([1]; all animals, 30, 60 and 100 mg/kg/day) was “no significant signs of toxicity”, the “safety (body weight, histological study of the main organs)” value ([1]; mouse, in vivo, 100 mg/kg/day) was “safe” and the Mean proliferation (H441; aprepitant 1 μM) was 100.6. For the same molecule, the Mean proliferation (H441; aprepitant 3 μM) was 90.97, the Mean proliferation (H441; aprepitant 5 μM) was 64.10 and the Mean proliferation (H441; aprepitant 10 μM) was 61.08. For the same molecule, the Mean proliferation (H441; aprepitant 20 μM) was 53.64, the Mean proliferation (H441; aprepitant 30 μM) was 37.56 and the Mean proliferation (H441; aprepitant 40 μM) was 20.50. For the same molecule, the Mean proliferation (H441; aprepitant 50 μM) was 3.14, the Mean proliferation (H441; aprepitant 60 μM) was 10.83 and the Mean proliferation ([2]; aprepitant 0.3 μM) was 100.88. It also gave a Mean proliferation ([2]; aprepitant 1 μM) of 101.83, a Mean proliferation ([2]; aprepitant 3 μM) of 91.36 and a Mean proliferation ([2]; aprepitant 10 μM) of 85.45. It also gave a Mean proliferation ([2]; aprepitant 20 μM) of 80.23, a Mean proliferation ([2]; aprepitant 30 μM) of 57.51 and a Mean proliferation ([2]; aprepitant 40 μM) of 43.65. The Mean proliferation ([2]; aprepitant 50 μM) was 23.8, the Mean proliferation ([2]; aprepitant 60 μM) was 9.29 and the Mean proliferation ([3]; aprepitant 0.3 μM) was 99.8. For the same molecule, the Mean proliferation ([3]; aprepitant 1 μM) was 100.23, the Mean proliferation ([3]; aprepitant 3 μM) was 95.65 and the Mean proliferation ([3]; aprepitant 10 μM) was 81.8. It also gave a Mean proliferation ([3]; aprepitant 20 μM) of 65.97, a Mean proliferation ([3]; aprepitant 30 μM) of 45.14 and a Mean proliferation ([3]; aprepitant 40 μM) of 32.62. For the same molecule, the Mean proliferation ([3]; aprepitant 50 μM) was 23.78 and the Mean proliferation ([3]; aprepitant 60 μM) was 12.87.
